From PubChem BioAssay (NCI)
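Exposure lasted 48 hours, with cells grown in 96-well plates and compounds tested at five concentrations. TGI: total growth inhibition.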

Key:
Assay in all cases: inhibition of tumour cell growth, NCI panel, 48 h
SF-268 CNS = tested on: SF-268 CNS
MDA-N = tested on: MDA-N
786-0 renal = tested on: 786-0 renal
CAKI-1 renal = tested on: CAKI-1 renal
ACHN renal = tested on: ACHN renal
A498 renal = tested on: A498 renal
OVCAR-8 ovarian = tested on: OVCAR-8 ovarian
SK-MEL-28 melanoma = tested on: SK-MEL-28 melanoma
SW-620 colon = tested on: SW-620 colon
CCRF-CEM leukemia = tested on: CCRF-CEM leukemia
HCT-116 colon = tested on: HCT-116 colon
TK-10 renal = tested on: TK-10 renal
SK-OV-3 ovarian = tested on: SK-OV-3 ovarian
PC-3 prostate = tested on: PC-3 prostate
MDA-MB-435 = tested on: MDA-MB-435
HCT-15 colon = tested on: HCT-15 colon
SNB-75 CNS = tested on: SNB-75 CNS
SK-MEL-2 melanoma = tested on: SK-MEL-2 melanoma
NCI-H226 lung = tested on: NCI-H226 lung
UACC-257 melanoma = tested on: UACC-257 melanoma
HS 578T breast = tested on: HS 578T breast
SNB-19 CNS = tested on: SNB-19 CNS
OVCAR-5 ovarian = tested on: OVCAR-5 ovarian
BT-549 breast = tested on: BT-549 breast
M14 melanoma = tested on: M14 melanoma
IGROV1 ovarian = tested on: IGROV1 ovarian
NCI-H23 lung = tested on: NCI-H23 lung
DU-145 prostate = tested on: DU-145 prostate
HOP-62 NSCLC = tested on: HOP-62 NSCLC
KM12 colon = tested on: KM12 colon
HT29 colon = tested on: HT29 colon
OVCAR-4 ovarian = tested on: OVCAR-4 ovarian
UO-31 renal = tested on: UO-31 renal
COLO 205 colon = tested on: COLO 205 colon
U251 CNS = tested on: U251 CNS
OVCAR-3 ovarian = tested on: OVCAR-3 ovarian
MCF7 breast = tested on: MCF7 breast
HCC-2998 colon = tested on: HCC-2998 colon
HOP-92 NSCLC = tested on: HOP-92 NSCLC
MDA-MB-231 breast = tested on: MDA-MB-231 breast
EKVX NSCLC = tested on: EKVX NSCLC
A549 NSCLC = tested on: A549 NSCLC
SN12C renal = tested on: SN12C renal
RPMI-8226 leukemia = tested on: RPMI-8226 leukemia
K-562 leukemia = tested on: K-562 leukemia
SK-MEL-5 melanoma = tested on: SK-MEL-5 melanoma
NCI/ADR-RES ovarian = tested on: NCI/ADR-RES ovarian
LOX IMVI melanoma = tested on: LOX IMVI melanoma
T-47D breast = tested on: T-47D breast
NCI-H460 lung = tested on: NCI-H460 lung
UACC-62 melanoma = tested on: UACC-62 melanoma
NCI-H522 lung = tested on: NCI-H522 lung
SF-295 CNS = tested on: SF-295 CNS
MALME-3M melanoma = tested on: MALME-3M melanoma
RXF 393 renal = tested on: RXF 393 renal
MOLT-4 leukemia = tested on: MOLT-4 leukemia
SF-539 CNS = tested on: SF-539 CNS
HL-60(TB) leukemia = tested on: HL-60(TB) leukemia

Measured: TGI

COC(=O)C(C)(C)NC(=O)C(Cc1ccccc1)Nc1ncnc2c1ncn2-c1ccc(OC)cc1 (centres undefined)
98.6 µM: BT-549 breast
43.9 µM: MDA-N
69.1 µM: SNB-75 CNS
72.7 µM: A498 renal
73.5 µM: NCI-H460 lung
72.4 µM: MCF7 breast
54.1 µM: SW-620 colon
32 µM: MDA-MB-435
96.7 µM: KM12 colon
35.8 µM: CCRF-CEM leukemia
79.8 µM: HS 578T breast
58.2 µM: HOP-92 NSCLC | T-47D breast
45.6 µM: EKVX NSCLC
34.2 µM: NCI-H522 lung
46.6 µM: HT29 colon
not listed: MALME-3M melanoma | RXF 393 renal | MOLT-4 leukemia | SF-539 CNS | HL-60(TB) leukemia
> 100 µM: all other assays above

COC1OC(Cn2c(C)nc(Br)c2Br)C(O)C(O)C1O (centres undefined)
not listed: SF-268 CNS | TK-10 renal | NCI-H226 lung | SN12C renal | LOX IMVI melanoma | SF-539 CNS | HL-60(TB) leukemia
> 100 µM: all other assays above

CCO/C(O)=C(/C(=N)N1CCOCC1)C(=O)Nc1cccc(Cl)c1
not listed: UO-31 renal | HOP-92 NSCLC | SK-MEL-5 melanoma
> 100 µM: all other assays above
